The source of these data is US12559529B2, “NPY2 receptor agonists” (Boehringer Ingelheim International GmbH, priority 2019, dated 2026).

Bounds are passed on as bounds.

Data set [1] deals with T1, Human Neuropeptide Y2 Receptor (Homo sapiens, UniProt P49146).
T1 construct: purchased CHEMICON HTS066M
T1 sequence (P49146 1-381): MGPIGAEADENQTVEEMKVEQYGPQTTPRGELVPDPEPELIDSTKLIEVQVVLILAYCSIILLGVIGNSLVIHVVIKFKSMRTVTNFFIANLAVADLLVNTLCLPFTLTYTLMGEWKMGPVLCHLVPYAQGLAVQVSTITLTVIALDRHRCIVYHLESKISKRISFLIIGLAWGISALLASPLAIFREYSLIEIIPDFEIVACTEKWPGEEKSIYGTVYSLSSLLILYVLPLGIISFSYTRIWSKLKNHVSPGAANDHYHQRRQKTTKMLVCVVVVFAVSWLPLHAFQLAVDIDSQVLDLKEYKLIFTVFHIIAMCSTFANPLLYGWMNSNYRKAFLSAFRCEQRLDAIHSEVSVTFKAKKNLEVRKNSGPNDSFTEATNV
The data set is described as follows: Radioligand binding competition assay (RLB). The method, boiled down: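 IC50 values come from nonlinear regression of sigmoidal dose-response curves of filter-bound radioactivity. Peptides competed with radioligand at human Y2 receptor membranes (0.5 μg protein/well) for 2 h at room temperature in pH 7.4 HEPES buffer containing Mg2+, Ca2+ and 0.2% ovalbumin.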

The next data set has as its target T2, human NPY4 receptor (Homo sapiens, UniProt P50391).
T2 construct: expressed in transfected cells; host or cells: CHO-K1
As to the kind of experiment: HTRF cAMP Gi assay, hY4R. Format: cell-based. To be noted: Table 4; CHO-K1 cells.

Data set [2] has as its target T1, Human Neuropeptide Y2 Receptor. As to the kind of experiment: Activity (RLB) after incubation in solutions at different pH values. Format: binding. To be noted: apparent Ki of filtrate after 2 h in buffer.
The next data set has as its target T3, human NPY5 receptor (Homo sapiens, UniProt Q15761).
T3 sequence (Q15761 1-445): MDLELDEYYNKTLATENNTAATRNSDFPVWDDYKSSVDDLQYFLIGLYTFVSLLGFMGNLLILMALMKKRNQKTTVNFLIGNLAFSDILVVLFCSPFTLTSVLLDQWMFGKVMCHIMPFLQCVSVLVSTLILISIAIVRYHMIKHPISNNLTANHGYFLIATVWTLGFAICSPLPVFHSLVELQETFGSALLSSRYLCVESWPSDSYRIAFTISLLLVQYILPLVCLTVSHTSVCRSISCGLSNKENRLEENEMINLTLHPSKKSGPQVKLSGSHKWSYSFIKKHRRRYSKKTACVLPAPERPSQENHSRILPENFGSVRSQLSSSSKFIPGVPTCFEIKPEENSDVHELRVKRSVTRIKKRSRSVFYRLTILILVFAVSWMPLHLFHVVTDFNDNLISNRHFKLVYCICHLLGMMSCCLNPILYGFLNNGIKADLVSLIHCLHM
As to the kind of experiment: HTRF cAMP Gi assay, hY5R.

A further data set addresses T4, human NPY1 receptor (Homo sapiens, UniProt P25929).
T4 construct: expressed in transfected cells; host or cells: CHO-K1
T4 sequence (P25929 1-384): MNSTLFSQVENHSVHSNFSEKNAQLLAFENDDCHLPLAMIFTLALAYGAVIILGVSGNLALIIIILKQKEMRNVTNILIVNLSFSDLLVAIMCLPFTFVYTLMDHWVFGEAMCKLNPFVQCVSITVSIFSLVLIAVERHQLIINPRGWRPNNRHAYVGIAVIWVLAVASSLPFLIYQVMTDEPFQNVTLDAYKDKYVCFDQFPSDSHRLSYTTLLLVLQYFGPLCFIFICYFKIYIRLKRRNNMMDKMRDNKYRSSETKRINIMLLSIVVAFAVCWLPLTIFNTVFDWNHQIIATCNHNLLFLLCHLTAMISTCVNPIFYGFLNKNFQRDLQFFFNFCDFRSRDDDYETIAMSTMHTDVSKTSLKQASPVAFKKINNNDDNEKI
As to the kind of experiment: HTRF cAMP Gi assay, hY1R. The format is cell-based. To be noted: Table 4; CHO-K1 cells.

A further data set has as its target T5, human NPY2 receptor (Homo sapiens, UniProt P49146).
T5 sequence (P49146 1-381): T1 sequence (P49146 1-381)
The data set is described as follows: HTRF cAMP Gi assay, hY2R.

The nature of a further data set: Solubility determination. Format: physicochemical. Here is the method: The peptide was dissolved by shaking the filter unit horizontally at 600 rpm for 2 hours at room temperature. […] Both the control and sample were analysed with reversed phase chromatography. The area under the peak of the sample was compared to the control and the solubility was calculated based on that ratio. The pH was measured and recorded for each sample.

T2 sequence (P50391 whole entry): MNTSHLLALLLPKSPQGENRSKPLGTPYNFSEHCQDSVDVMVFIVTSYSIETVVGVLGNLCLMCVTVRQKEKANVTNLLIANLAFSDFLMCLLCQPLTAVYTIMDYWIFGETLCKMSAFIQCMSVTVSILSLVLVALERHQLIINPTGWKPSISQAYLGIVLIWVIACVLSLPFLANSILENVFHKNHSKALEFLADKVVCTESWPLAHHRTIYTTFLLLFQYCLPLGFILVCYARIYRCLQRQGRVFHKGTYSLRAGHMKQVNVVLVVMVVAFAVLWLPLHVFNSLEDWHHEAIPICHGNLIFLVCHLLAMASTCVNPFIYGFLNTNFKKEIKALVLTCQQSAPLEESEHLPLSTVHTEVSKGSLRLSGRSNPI
Method for human NPY1 receptor: Briefly, the production of intracellular cAMP will generate a competition between unlabeled cAMP and exogenously added d2-cAMP for anti-cAMP antibodies conjugated to cryptate. CHO-K1 cells stably expressing the human NPY1, NPY2, NPY4 and NPY5 receptors were used with the cells brought to life from a frozen stock immediately before assay performance. 2000 cells per well were applied for all four NPY receptor subtype assays. A 384-well format was used applying a total volume of 20 μl using 5 μl cells, 2.5 μl peptide agonist, 2.5 μl forskolin and 5 μl of each of the fluorophores. […] Concentration-response evaluation of compounds was performed with 11 concentrations of agonist peptides (covering 3 decades). EC50 values were calculated by nonlinear regression using sigmoid concentration-response with variable slope.

Take `CC(C)CC(=O)N[C@@H](C)C(=O)N1CCC[C@H]1C(=O)N[C@@H](C)C(=O)N[C@@H](CCCCNC(=O)COCCOCCNC(=O)COCCOCCNC(=O)CC[C@H](NC(=O)CCCCCCCCCCCCCCCCC(=O)O)C(=O)O)C(=O)N1CCC[C@H]1C(=O)N[C@@H](CCC(=O)O)C(=O)N[C@@H](CCC(=O)O)C(=O)N[C@@H](CC(=O)O)C(=O)N[C@@H](C)C(=O)N[C@H](C(=O)N1CCC[C@H]1C(=O)N[C@@H](CCC(=O)O)C(=O)N[C@@H](CCC(=O)O)C(=O)N[C@@H](CC(C)C)C(=O)N[C@@H](CCC(N)=O)C(=O)N[C@@H](CCCNC(=N)N)C(=O)N[C@@H](Cc1ccc(O)cc1)C(=O)N[C@@H](Cc1ccc(O)cc1)C(=O)N[C@H](C(=O)N[C@@H](CO)C(=O)N[C@@H](CC(C)C)C(=O)N[C@@H](CCCNC(=N)N)C(=O)N[C@@H](Cc1c[nH]cn1)C(=O)N[C@@H](Cc1ccc(O)cc1)C(=O)N[C@@H](Cc1ccc(O)cc1)C(=O)N[C@@H](CC(N)=O)C(=O)N[C@@H](Cc1c[nH]c2ccccc12)C(=O)N[C@@H](CC(C)C)C(=O)N[C@H](C(=O)N[C@@H](CCCNC(=N)N)C(=O)N[C@@H](CCC(N)=O)C(=O)N[C@@H](CCCNC(=N)N)C(=O)N[C@@H](Cc1ccc(O)cc1)C(N)=O)[C@@H](C)O)C(C)C)[C@@H](C)O` [Compound 106, N{alpha-4}-(3-methylbutanoyl)-N{epsilon-7}-[2-(2-{2-[2-(2-{2-[(4S)-4-carboxy-4-(17-carboxyheptadecanamido)butanamido]ethoxy}ethoxy)acetamido]ethoxy}ethoxy)acetamido]-[4A,6A,7K,9E,13T,18Q,22V,28Y,30W,31L]hPYY (4-36)]: the Ki came to 0.66 nM in data set [1] (Table 3, human 125I-PYY (1-36) 0.02 nM, Y2 receptor membranes, read-out: Ki); 6 nM in data set [1] (Table 8, from DMSO stock, read-out: hY2R RLB Ki (nM) DMSO); 7.7 nM in data set [2] (pH6.1-6.2, assumed 10 mg/ml, read-out: RLB 6 (pH6.1-6.2)); 9.3 nM in data set [2] (pH7.1-7.2, assumed 10 mg/ml, read-out: RLB 7 (pH7.1-7.2)); 7.5 nM in data set [2] (pH8.1-8.2, assumed 10 mg/ml, read-out: RLB 8 (pH8.1-8.2)). Besides, the EC50 at human NPY4 receptor was > 5000 nM; on human NPY5 receptor, > 5000 nM; on human NPY1 receptor it was > 5000 nM; at human NPY2 receptor it was 0.173 nM.

As for `CC(C)CC(=O)N[C@@H](CCCNC(=N)N)C(=O)N1CCC[C@H]1C(=O)N[C@@H](CCC(=O)O)C(=O)N[C@@H](CCCCNC(=O)COCCOCCNC(=O)COCCOCCNC(=O)CC[C@H](NC(=O)CCCCCCCCCCCCCCCCC(=O)O)C(=O)O)C(=O)N1CCC[C@H]1C(=O)NCC(=O)N[C@@H](CCC(=O)O)C(=O)N[C@@H](CC(=O)O)C(=O)N[C@@H](C)C(=O)N[C@@H](CO)C(=O)N1CCC[C@H]1C(=O)N[C@@H](CCC(=O)O)C(=O)N[C@@H](CCC(=O)O)C(=O)N[C@@H](CC(C)C)C(=O)N[C@@H](CCC(N)=O)C(=O)N[C@@H](CCCNC(=N)N)C(=O)N[C@@H](Cc1ccc(O)cc1)C(=O)N[C@@H](Cc1ccc(O)cc1)C(=O)N[C@H](C(=O)N[C@@H](CO)C(=O)N[C@@H](CC(C)C)C(=O)N[C@@H](CCCNC(=N)N)C(=O)N[C@@H](C)C(=O)N[C@@H](Cc1ccc(O)cc1)C(=O)N[C@@H](Cc1ccc(O)cc1)C(=O)N[C@@H](CC(N)=O)C(=O)N[C@@H](Cc1c[nH]c2ccccc12)C(=O)N[C@@H](CC(C)C)C(=O)N[C@H](C(=O)N[C@@H](CCCNC(=N)N)C(=O)N[C@@H](CCC(N)=O)C(=O)N[C@@H](CCCNC(=N)N)C(=O)N[C@@H](Cc1ccc(O)cc1)C(N)=O)[C@@H](C)O)C(C)C` [Ref. 3, reference compound], in data set [1] (Table 2, read-out: hY2 RLB (nM) (Ex. 1)), the Ki stood at 1.69 nM. The “[final pH] of Sol pH 6 sample” value in the data set “Solubility determination” (pH 6) is “[6.0]”. Besides, the “[final pH] of Sol pH 7 sample” value in the data set “Solubility determination” (pH 7) is “[6.7]”. For the same molecule, the response on human NPY2 receptor was half-maximal at 0.375 nM (EC50).
